The kinase profiling compilation of Christmann-Franck et al. (2016)

Columns and labels:
Experiment in all cases: radiometric filter-binding kinase assay, Kinase HotSpot
Details in all cases: compound 0.5 µM; ATP 10 µM
[1] = target: PRKCH (human) (UniProt P24723)
[2] = target: CDK2 CCNA2 (human) (UniProt P24941+P20248)
[3] = target: MAP3K7 TAB1 (human) (UniProt O43318+Q15750)
[4] = target: CDK9 CCNK (human) (UniProt O75909+P50750)
[5] = target: CDK1 CCNB1 (human) (UniProt P06493+P14635)
[6] = target: CDK6 CCND1 (human) (UniProt Q00534+P24385)
[7] = target: CDK4 CCND3 (human) (UniProt P30281+P11802)
[8] = target: CDK4 CCND1 (human) (UniProt P24385+P11802)
[9] = target: CDK9 CCNT1 (human) (UniProt P50750+O60563)
[10] = target: CDK1 CCNA2 (human) (UniProt P06493+P20248)
[11] = target: CDK5 CDK5R1 p35 (human) (UniProt Q00535+Q15078)
[12] = target: CDK5 CDK5R1 p25 (human) (UniProt Q00535+Q15078)
[13] = target: EPHB2 (human) (UniProt P29323)
[14] = target: CDK6 CCND3 (human) (UniProt P30281+Q00534)
[15] = target: CDK3 CCNE1 (human) (UniProt Q00526+P24864)
[16] = target: CDK2 CCNE1 (human) (UniProt P24941+P24864)
[17] = target: CDK7 CCNH MNAT1 (human) (UniProt P50613+P51948+P51946)
[18] = target: FRK (human) (UniProt P42685)
[19] = target: TLK2 (human) (UniProt Q86UE8)
[20] = target: DYRK1B (human) (UniProt Q9Y463)
[21] = target: LTK (human) (UniProt P29376)
[22] = target: STK33 (human) (UniProt Q9BYT3)
Chain of STK33 (human) (Q9BYT3 whole entry, looked up): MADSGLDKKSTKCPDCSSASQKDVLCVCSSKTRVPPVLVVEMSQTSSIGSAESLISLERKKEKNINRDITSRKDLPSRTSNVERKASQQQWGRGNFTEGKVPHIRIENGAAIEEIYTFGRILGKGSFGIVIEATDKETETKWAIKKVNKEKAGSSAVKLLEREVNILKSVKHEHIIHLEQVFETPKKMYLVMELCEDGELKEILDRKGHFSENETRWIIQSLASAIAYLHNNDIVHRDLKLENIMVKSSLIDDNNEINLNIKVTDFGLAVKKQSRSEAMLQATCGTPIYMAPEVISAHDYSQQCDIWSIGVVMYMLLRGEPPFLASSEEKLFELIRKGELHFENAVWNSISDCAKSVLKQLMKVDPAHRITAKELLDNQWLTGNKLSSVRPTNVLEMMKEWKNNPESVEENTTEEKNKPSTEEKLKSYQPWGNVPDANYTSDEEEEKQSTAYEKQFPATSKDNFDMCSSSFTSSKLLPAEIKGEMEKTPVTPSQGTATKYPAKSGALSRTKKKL

Chain of PRKCH (human) (P24723 whole entry, looked up): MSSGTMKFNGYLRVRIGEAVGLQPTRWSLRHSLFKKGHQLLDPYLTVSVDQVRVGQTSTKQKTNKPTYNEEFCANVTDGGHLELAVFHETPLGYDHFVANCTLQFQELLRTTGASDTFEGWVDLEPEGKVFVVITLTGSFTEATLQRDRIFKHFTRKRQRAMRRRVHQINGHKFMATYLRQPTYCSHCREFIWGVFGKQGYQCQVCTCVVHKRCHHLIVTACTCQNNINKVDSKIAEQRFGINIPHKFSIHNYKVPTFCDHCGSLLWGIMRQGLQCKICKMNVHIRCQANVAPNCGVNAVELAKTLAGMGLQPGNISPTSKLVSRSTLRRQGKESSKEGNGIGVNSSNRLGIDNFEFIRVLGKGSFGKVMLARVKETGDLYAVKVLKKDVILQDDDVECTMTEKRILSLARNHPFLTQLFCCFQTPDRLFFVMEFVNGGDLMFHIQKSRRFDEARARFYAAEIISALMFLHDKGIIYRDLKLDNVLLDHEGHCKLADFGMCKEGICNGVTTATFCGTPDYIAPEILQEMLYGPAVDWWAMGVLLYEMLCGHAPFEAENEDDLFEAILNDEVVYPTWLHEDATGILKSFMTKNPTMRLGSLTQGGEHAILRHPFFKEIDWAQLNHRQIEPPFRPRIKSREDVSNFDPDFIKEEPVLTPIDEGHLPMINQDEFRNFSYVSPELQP
Chain of DYRK1B (human) (Q9Y463 whole entry, looked up): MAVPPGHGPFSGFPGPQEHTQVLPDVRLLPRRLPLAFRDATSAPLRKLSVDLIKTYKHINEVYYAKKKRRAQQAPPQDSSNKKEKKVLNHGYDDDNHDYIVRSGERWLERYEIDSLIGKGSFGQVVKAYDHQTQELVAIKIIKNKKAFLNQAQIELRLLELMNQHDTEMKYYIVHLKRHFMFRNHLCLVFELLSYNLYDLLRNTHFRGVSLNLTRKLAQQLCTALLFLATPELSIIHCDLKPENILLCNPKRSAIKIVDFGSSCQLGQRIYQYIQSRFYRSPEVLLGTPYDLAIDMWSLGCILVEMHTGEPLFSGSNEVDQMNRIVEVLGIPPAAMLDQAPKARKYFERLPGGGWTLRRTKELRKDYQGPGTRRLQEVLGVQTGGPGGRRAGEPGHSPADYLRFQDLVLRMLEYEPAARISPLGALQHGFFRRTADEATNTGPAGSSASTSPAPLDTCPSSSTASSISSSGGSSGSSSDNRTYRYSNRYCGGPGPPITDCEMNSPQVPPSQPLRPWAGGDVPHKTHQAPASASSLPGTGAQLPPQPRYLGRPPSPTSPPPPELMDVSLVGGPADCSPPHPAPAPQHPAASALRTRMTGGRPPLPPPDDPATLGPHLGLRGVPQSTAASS
Chain of MAP3K7 TAB1 (human) (O43318 whole entry, looked up): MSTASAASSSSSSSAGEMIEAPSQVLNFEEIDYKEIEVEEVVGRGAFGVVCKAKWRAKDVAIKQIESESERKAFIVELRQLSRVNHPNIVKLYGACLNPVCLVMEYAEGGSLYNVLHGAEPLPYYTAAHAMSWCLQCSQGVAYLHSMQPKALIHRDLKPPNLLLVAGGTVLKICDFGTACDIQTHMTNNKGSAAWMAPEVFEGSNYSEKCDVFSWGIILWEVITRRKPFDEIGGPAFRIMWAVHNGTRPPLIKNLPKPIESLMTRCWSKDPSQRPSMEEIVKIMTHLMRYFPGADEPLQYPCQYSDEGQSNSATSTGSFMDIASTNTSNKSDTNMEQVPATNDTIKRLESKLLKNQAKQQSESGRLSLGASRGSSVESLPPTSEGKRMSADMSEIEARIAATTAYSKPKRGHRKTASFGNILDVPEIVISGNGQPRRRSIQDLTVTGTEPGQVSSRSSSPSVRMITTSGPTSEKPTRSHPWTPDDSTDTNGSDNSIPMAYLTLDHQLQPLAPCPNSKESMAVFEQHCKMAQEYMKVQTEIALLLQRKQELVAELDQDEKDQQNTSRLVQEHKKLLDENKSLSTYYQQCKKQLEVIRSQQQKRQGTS
Chain of MAP3K7 TAB1 (human) (Q15750 whole entry, looked up): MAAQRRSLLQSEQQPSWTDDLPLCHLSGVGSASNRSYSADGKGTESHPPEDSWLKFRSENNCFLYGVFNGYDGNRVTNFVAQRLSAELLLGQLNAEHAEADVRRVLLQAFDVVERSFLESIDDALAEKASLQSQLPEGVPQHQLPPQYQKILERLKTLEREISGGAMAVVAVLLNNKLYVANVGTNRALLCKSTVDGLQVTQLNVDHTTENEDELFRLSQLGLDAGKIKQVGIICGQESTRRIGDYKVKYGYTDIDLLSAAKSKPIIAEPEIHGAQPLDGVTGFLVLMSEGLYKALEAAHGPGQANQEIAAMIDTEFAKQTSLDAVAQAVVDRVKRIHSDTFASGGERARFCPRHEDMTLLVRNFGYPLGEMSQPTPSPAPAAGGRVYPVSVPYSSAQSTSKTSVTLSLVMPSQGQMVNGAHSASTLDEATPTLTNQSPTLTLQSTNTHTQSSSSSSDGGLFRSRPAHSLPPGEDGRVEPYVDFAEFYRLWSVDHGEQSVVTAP
Chain of CDK6 CCND1 (human) (P24385 whole entry, looked up): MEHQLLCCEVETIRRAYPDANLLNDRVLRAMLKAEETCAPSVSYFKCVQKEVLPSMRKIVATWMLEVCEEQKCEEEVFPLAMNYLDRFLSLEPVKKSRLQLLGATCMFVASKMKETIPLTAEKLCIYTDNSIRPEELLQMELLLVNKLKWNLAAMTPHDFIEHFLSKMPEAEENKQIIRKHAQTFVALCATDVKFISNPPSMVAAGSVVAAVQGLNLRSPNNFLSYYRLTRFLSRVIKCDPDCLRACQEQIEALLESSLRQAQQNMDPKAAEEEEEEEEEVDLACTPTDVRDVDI
Chain of CDK6 CCND1 (human) (Q00534 whole entry, looked up): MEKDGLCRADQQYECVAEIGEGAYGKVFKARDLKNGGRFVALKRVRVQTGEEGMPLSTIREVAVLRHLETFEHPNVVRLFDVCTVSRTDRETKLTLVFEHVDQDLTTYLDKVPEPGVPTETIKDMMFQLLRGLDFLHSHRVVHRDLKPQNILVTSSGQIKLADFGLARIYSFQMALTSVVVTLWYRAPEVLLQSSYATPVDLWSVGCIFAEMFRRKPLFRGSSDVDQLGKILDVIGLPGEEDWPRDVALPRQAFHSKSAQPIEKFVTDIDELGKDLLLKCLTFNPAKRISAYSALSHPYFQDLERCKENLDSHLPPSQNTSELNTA
Chain of CDK3 CCNE1 (human) (P24864 whole entry, looked up): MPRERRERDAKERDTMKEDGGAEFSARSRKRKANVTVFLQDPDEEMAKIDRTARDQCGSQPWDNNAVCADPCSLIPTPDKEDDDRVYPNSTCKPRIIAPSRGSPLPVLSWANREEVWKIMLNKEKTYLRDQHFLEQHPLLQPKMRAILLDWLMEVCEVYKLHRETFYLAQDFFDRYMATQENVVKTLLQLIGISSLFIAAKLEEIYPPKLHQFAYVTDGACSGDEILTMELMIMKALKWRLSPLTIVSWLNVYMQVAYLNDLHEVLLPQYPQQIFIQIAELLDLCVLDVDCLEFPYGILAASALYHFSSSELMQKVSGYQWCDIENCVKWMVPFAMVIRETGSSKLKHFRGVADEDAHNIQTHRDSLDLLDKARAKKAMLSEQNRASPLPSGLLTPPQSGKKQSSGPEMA
Chain of CDK3 CCNE1 (human) (Q00526 whole entry, looked up): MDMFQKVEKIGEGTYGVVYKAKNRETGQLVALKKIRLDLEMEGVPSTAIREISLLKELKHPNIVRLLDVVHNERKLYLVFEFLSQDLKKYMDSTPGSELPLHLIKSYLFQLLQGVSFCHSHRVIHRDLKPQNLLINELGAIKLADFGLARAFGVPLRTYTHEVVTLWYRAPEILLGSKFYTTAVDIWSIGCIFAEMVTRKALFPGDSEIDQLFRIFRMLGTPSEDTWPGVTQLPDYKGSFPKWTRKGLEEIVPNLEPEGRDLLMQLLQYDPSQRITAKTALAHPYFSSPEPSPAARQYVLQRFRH
Chain of CDK2 CCNE1 (human) (P24864 whole entry, looked up, other chains not shown): as the sequence (P24864 whole entry, looked up) above
Chain of CDK2 CCNA2 (human) (P20248 whole entry, looked up, other chains not shown): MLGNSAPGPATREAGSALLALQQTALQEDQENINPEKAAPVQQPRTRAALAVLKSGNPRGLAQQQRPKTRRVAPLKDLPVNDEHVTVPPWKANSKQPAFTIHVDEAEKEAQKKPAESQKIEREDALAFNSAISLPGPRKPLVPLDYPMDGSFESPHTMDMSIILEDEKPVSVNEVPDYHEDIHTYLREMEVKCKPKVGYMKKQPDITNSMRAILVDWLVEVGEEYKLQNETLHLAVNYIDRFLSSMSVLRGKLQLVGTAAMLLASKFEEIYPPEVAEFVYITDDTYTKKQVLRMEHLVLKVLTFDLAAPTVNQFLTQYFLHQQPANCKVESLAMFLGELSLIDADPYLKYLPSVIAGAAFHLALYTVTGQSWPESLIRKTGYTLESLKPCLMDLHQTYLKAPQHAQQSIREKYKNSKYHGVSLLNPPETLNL

For `O=C(Nc1nc2ccccc2n1CCN1CCOCC1)c1cccc([N+](=O)[O-])c1`, which residual activity [1] is on record?
Its residual activity is 94.9%.

What does the source list for `Cc1nc(Nc2ncc(C(=O)Nc3c(C)cccc3Cl)s2)cc(N2CCN(CCO)CC2)n1`?
residual activity [2]: 92.4%; residual activity [3]: 87.3%; residual activity [4]: 104%; residual activity [5]: 93.9%; residual activity [6]: 95.5%; residual activity [7]: 99.1%; residual activity [8]: 94.4%; residual activity [9]: 84.1%; residual activity [10]: 96.3%; residual activity [1]: 106%; residual activity [11]: 101%; residual activity [12]: 102%; residual activity [13]: -0.191%; residual activity [14]: 103%; residual activity [15]: 91.7%; residual activity [16]: 95.9%; residual activity [17]: 112%; residual activity [18]: -0.878%

Which residual activity [1] does the source give for `CC(C)n1cnc2c(NCc3ccccc3)nc(NCCCO)nc21` here?
The residual activity was 77%.

Which results are given for `Cc1cc(C)c(/C=C2\C(=O)Nc3ccccc32)[nH]1`?
residual activity [1]: 94.7%; residual activity [19]: 98.5%

With `O=[N+]([O-])/C=C/c1ccc2c(c1)OCO2` as the compound, how does the residual activity [20] read?
Its residual activity is 112%.

What about the residual activity [21] of the same compound?
Its residual activity is 96.4%.

What about the residual activity [1] of the same compound?
Its residual activity is 103%.

What about the residual activity [22] of the same compound?
The residual activity was 94.2%.

`CO[C@H]1[C@@H](OC)C[C@H](C)[C@@H](OC)C2=CC(=O)C=C(NC(=O)/C(C)=C\C=C/[C@H](OC)[C@@H](OC(N)=O)/C(C)=C\[C@@H]1C)C2=O` was tested. Which residual activity [20] did it give?
The residual activity was 104%.

And the residual activity [21]?
The residual activity was 98.5%.

And the residual activity [1]?
The residual activity was 95.3%.

And the residual activity [22]?
The residual activity was 97%.

What does the source list for `COC[C@H]1OC(=O)c2coc3c2[C@@]1(C)C1=C(C3=O)[C@@H]2CCC(=O)[C@@]2(C)C[C@H]1OC(C)=O`?
residual activity [2]: 93.5%; residual activity [3]: 97.2%; residual activity [4]: 107%; residual activity [5]: 101%; residual activity [6]: 90.1%; residual activity [7]: 98.8%; residual activity [8]: 94.8%; residual activity [9]: 93.7%; residual activity [20]: 100%; residual activity [10]: 97%; residual activity [1]: 100%; residual activity [11]: 88.7%; residual activity [12]: 87.6%; residual activity [14]: 85.8%; residual activity [15]: 95.2%; residual activity [16]: 105%; residual activity [22]: 88.2%; residual activity [17]: 93.3%
